# According to patent US11299478B2, “2-cyanopyrimidin-4-yl carbamate or urea derivative or salt thereof, and pharmaceutical composition including same” (HANLIM PHARMACEUTICAL CO., LTD., priority 2018, dated 2022):
# Tests used:
# Format in all cases: biochemical
# cathepsin S = cathepsin S (Homo sapiens, UniProt P25774); assay: Inhibitory activity assay against cathepsin S (enzyme assay); conditions: Z-Phe-Arg-AMC 70 μM, enzyme 3 nM, pH 6.5, 45 minutes
# Summary of the method: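 Cathepsin S (3 nM final) with Z-Phe-Arg-AMC substrate (70 μM final) in pH 6.5 buffer of 50 mM MES, 2.5 mM DTT, 1.0 mM EDTA, 0.001% BSA, 10% DMSO; compound 10.0 μM down to 0.000508 μM, 10 points. Fluorescence (ex 340/em 460 nm) after 45 min; IC50 by 4-parameter logistic fit.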
# cathepsin L = cathepsin L (Homo sapiens, UniProt P07711); assay: Inhibitory activity assay against cathepsin L (enzyme assay); conditions: Z-Phe-Arg-AMC 2 μM, enzyme 3 nM, pH 5.5, 30 minutes
# Summary of the method: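 Enzyme at 3 nM with 2 μM Z-Phe-Arg-AMC in 50 mM MES pH 5.5, 2.5 mM DTT, 2.5 mM EDTA, 0.005% Polysorbate 20, 10% DMSO; 30 min reaction, AMC fluorescence 340/460 nm. Ten-point series 10.0 μM to 0.000508 μM; IC50 by 4-parameter logistic fit.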
# cathepsin B = cathepsin B (Homo sapiens, UniProt P07858); assay: Inhibitory activity assay against cathepsin B (enzyme assay); conditions: Z-Arg-Arg-AMC 40 μM, enzyme 1 nM, pH 6.0, 90 minutes
# Summary of the method: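 1 nM enzyme with 40 μM Z-Arg-Arg-AMC and compound (10.0 μM down to 0.000508 μM, 10 points) in pH 6.0 buffer of 50 mM MES, 5 mM DTT, 2.5 mM EDTA, 0.005% Polysorbate 20, 10% DMSO. Fluorescence (340/460 nm) read after 90 min; IC50 by 4-parameter logistic fit.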
# cathepsin K = biological target: T1, cathepsin K (Homo sapiens, UniProt P43235); assay: Inhibitory activity assay against cathepsin K (enzyme assay); conditions: Z-Phe-Arg-AMC 10 μM, enzyme 1 nM, pH 5.5, 30 minutes
# T1 sequence (P43235 115-329): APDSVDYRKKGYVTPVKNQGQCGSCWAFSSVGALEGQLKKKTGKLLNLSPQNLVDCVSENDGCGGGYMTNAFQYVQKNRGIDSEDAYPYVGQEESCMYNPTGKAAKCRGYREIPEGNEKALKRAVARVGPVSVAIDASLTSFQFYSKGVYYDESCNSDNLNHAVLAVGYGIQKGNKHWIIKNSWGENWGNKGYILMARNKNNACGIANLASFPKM
# Summary of the method: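 Fluorogenic assay with 1 nM cathepsin K and 10 μM Z-Phe-Arg-AMC in pH 5.5 buffer (50 mM MES, 2 mM DTT, 2.5 mM EDTA, 0.01% Triton X-100, 10% DMSO). Ten compound concentrations, 10.0 to 0.000508 μM; 30 min reaction, ex 355/em 460 nm; IC50 by 4-parameter logistic fit.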
# cathepsin S, sequence (P25774 115-331, species assumed): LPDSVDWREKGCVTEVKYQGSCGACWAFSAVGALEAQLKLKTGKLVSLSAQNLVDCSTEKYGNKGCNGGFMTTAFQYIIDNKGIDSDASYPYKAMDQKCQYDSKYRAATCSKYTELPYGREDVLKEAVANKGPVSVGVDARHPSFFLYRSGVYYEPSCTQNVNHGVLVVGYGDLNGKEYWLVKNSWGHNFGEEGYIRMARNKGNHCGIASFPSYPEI
# cathepsin L, sequence (P07711 114-333, species assumed): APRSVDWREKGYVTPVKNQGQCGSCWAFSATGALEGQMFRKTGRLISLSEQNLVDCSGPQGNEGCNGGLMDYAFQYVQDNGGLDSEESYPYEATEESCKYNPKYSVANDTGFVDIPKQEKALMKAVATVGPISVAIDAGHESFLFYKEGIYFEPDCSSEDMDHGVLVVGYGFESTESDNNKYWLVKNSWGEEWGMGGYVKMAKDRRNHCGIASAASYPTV
Structure (SMILES),IC50 (cathepsin S),IC50 (cathepsin L),IC50 (cathepsin B),IC50 (cathepsin K)
"N#Cc1nccc(C2(NC(=O)Nc3cccc4ccccc34)CCCC2)n1 [Example 74, 1-(1-(2-cyanopyrimidin-4-yl)cyclopentyl)-3-(naphthalen-1-yl)urea]",> 10000 nM,> 10000 nM,> 10000 nM,27 nM
"Cc1ccc(C(F)(F)F)cc1NC(=O)NC1(c2ccnc(C#N)n2)CCCC1 [Example 66, 1-(1-(2-cyanopyrimidin-4-yl)cyclopentyl)-3-(2-methyl-5-(trifluoromethyl)phenyl)urea]",> 10000 nM,> 10000 nM,> 10000 nM,3.4 nM
"N#Cc1nccc(C2(NC(=O)Nc3ccc(-c4ccc(S(N)(=O)=O)cc4)cc3)CCCCC2)n1 [Example 173, 4′-(3-(1-(2-cyanopyrimidin-4-yl)cyclohexyl)ureido)-[1,1′-biphenyl]-4-sulfonamide]",> 10000 nM,> 10000 nM,> 10000 nM,13.8 nM
"N#Cc1nccc(C2(NC(=O)NCc3ccccc3)CCCCC2)n1 [Example 88, 1-benzyl-3-(1-(2-cyanopyrimidin-4-yl)cyclohexyl)urea]",> 10000 nM,7140 nM,> 10000 nM,31.6 nM
"N#Cc1nccc(C2(NC(=O)Nc3ccc(-c4ccc(C(F)(F)F)cc4)cc3)CCCCC2)n1 [Example 114, 1-(1-(2-cyanopyrimidin-4-yl)cyclohexyl)-3-(4′-(trifluoromethyl)-[1,1′-biphenyl]-4-yl)urea]",> 10000 nM,> 10000 nM,> 10000 nM,69.7 nM
"CS(=O)(=O)Nc1ccc(-c2ccc(NC(=O)NC3(c4ccnc(C#N)n4)CCCCC3)cc2)cc1 [Example 174, N-(4′-(3-(1-(2-cyanopyrimidin-4-yl)cyclohexyl)ureido)-[1,1′-biphenyl]-4-yl)methanesulfonamide]",> 10000 nM,> 10000 nM,> 10000 nM,11.7 nM
"C#Cc1ccc(-c2ccc(NC(=O)NC3(c4ccnc(C#N)n4)CCCCC3)cc2)cc1 [Example 122, 1-(1-(2-cyanopyrimidin-4-yl)cyclohexyl)-3-(4′-ethynyl-[1,1′-biphenyl]-4-yl)urea]",> 10000 nM,> 10000 nM,> 10000 nM,16.9 nM
"N#Cc1nccc(C2(NC(=O)Nc3ccc(-c4ccc(OCCN)cc4)cc3)CCCCC2)n1 [Example 190, 1-(4′-(2-aminoethoxy)-[1,1′-biphenyl]-4-yl)-3-(1-(2-cyanopyrimidin-4-yl)cyclohexyl)urea]",> 10000 nM,> 10000 nM,7870 nM,0.3 nM
"CC(=O)NCc1ccc(-c2ccc(NC(=O)NC3(c4ccnc(C#N)n4)CCCCC3)cc2)cc1 [Example 151, N-((4′-(3-(1-(2-cyanopyrimidin-4-yl)cyclohexyl)ureido)-[1,1′-biphenyl]-4-yl)methyl)acetamide]",> 10000 nM,> 10000 nM,> 10000 nM,2 nM
"N#Cc1nccc(C2(NC(=O)Nc3ccc(-c4ccc(CC(=O)O)cc4)cc3)CCCCC2)n1 [Example 161, 2-(4′-(3-(1-(2-cyanopyrimidin-4-yl)cyclohexyl)ureido)-[1,1′-biphenyl]-4-yl)acetic acid]",> 10000 nM,> 10000 nM,> 10000 nM,61.1 nM
"Cn1cc(-c2ccc(NC(=O)NC3(c4ccnc(C#N)n4)CCCCC3)cc2)cn1 [Example 120, 1-(1-(2-cyanopyrimidin-4-yl)cyclohexyl)-3-(4-(1-methyl-1H-pyrazol-4-yl)phenyl)urea]",> 10000 nM,> 10000 nM,9280 nM,3.9 nM
"N#Cc1nccc(C2(NC(=O)Nc3ccc(-c4cccc(F)c4)cc3)CCCCC2)n1 [Example 123, 1-(1-(2-cyanopyrimidin-4-yl)cyclohexyl)-3-(3′-fluoro-[1,1′-biphenyl]-4-yl)urea]",> 10000 nM,> 10000 nM,> 10000 nM,10.2 nM
"N#Cc1nccc(C2(NC(=O)Nc3ccc(-c4ccc(C(=O)NCCn5ccnc5)cc4)cc3)CCCCC2)n1 [Example 185, N-(2-(1H-imidazol-1-yl)ethyl)-4′-(3-(1-(2-cyanopyrimidin-4-yl)cyclohexyl)ureido)-[1,1′-biphenyl]-4-carboxamide]",> 10000 nM,4400 nM,1760 nM,0.1 nM
"Cc1ccc(C)c(NC(=O)NC2(c3ccnc(C#N)n3)CCCC2)c1 [Example 50, 1-(1-(2-cyanopyrimidin-4-yl)cyclopentyl)-3-(2,5-dimethylphenyl)urea]",> 10000 nM,2670 nM,> 10000 nM,4.3 nM

# Now from value to compound:
IC50 (cathepsin S),IC50 (cathepsin L),IC50 (cathepsin B),IC50 (cathepsin K),Structure (SMILES)
5600 nM,> 10000 nM,> 10000 nM,21.2 nM,"CS(=O)(=O)c1ccc(-c2ccc(NC(=O)NC3(c4ccnc(C#N)n4)CCCCC3)cc2C(F)(F)F)cc1C(F)(F)F [Example 178, 1-(1-(2-cyanopyrimidin-4-yl)cyclohexyl)-3-(4′-(methylsulfonyl)-2,3′-bis(trifluoromethyl)-[1,1′-biphenyl]-4-yl)urea]"
> 10000 nM,6720 nM,4800 nM,0.2 nM,"CN(C)CCOc1ccc(-c2ccc(NC(=O)NC3(c4ccnc(C#N)n4)CCCCC3)cc2)cc1 [Example 153, 1-(1-(2-cyanopyrimidin-4-yl)cyclohexyl)-3-(4′-(2-(dimethylamino)ethoxy)-[1,1′-biphenyl]-4-yl)urea]"
5420 nM,> 10000 nM,> 10000 nM,15.2 nM,"N#Cc1nccc(C2(NC(=O)Nc3ccc(-c4ccc(F)nc4)cc3)CCCCC2)n1 [Example 125, 1-(1-(2-cyanopyrimidin-4-yl)cyclohexyl)-3-(4-(6-fluoropyridin-3-yl)phenyl)urea]"
> 10000 nM,> 10000 nM,> 10000 nM,23.9 nM,"N#Cc1nccc(C2(NC(=O)Nc3ccc(Cl)c(C(F)(F)F)c3)CCCCC2)n1 [Example 93, 1-(4-chloro-3-(trifluoromethyl)phenyl)-3-(1-(2-cyanopyrimidin-4-yl)cyclohexyl)urea]"
9060 nM,> 10000 nM,> 10000 nM,13.6 nM,"N#Cc1nccc(C2(NC(=O)Nc3ccc(-c4cccnc4)cc3)CCCCC2)n1 [Example 128, 1-(1-(2-cyanopyrimidin-4-yl)cyclohexyl)-3-(4-(pyridin-3-yl)phenyl)urea]"
> 10000 nM,7030 nM,> 10000 nM,12.2 nM,"N#Cc1nccc(C2(NC(=O)Nc3ccc(N4CCOCC4)cc3)CCCCC2)n1 [Example 139, 1-(1-(2-cyanopyrimidin-4-yl)cyclohexyl)-3-(4-morpholinophenyl)urea]"
> 10000 nM,8060 nM,> 10000 nM,69.6 nM,"Cc1cccc(NC(=O)NC2(c3ccnc(C#N)n3)CCCC2)c1 [Example 38, 1-(1-(2-cyanopyrimidin-4-yl)cyclopentyl)-3-(meta-tolyl)urea]"
2190 nM,> 10000 nM,> 10000 nM,24 nM,"CS(=O)(=O)c1ccc(-c2ccc(NC(=O)NC3(c4ccnc(C#N)n4)CCCCC3)cc2)cc1C(F)(F)F [Example 171, 1-(1-(2-cyanopyrimidin-4-yl)cyclohexyl)-3-(4′-(methylsulfonyl)-3′-(trifluoromethyl)-[1,1′-biphenyl]-4-yl)urea]"
8020 nM,> 10000 nM,> 10000 nM,108 nM,"N#Cc1nccc(C2(NC(=O)Nc3ccc(-c4ccccc4C(F)(F)F)cc3)CCCCC2)n1 [Example 172, 1-(1-(2-cyanopyrimidin-4-yl)cyclohexyl)-3-(2′-(trifluoromethyl)-[1,1′-biphenyl]-4-yl)urea]"
2760 nM,7530 nM,> 10000 nM,11.5 nM,"N#Cc1nccc(C2(NC(=O)Nc3ccc(-c4ccc(S(N)(=O)=O)cc4)c(C(F)(F)F)c3)CCCCC2)n1 [Example 179, 4′-(3-(1-(2-cyanopyrimidin-4-yl)cyclohexyl)ureido)-2′-(trifluoromethyl)-[1,1′-biphenyl]-4-sulfonamide]"
3630 nM,2980 nM,> 10000 nM,2.1 nM,"CN(C(=O)NC1(c2ccnc(C#N)n2)CCCCC1)c1ccc(F)c(C(F)(F)F)c1 [Example 105, 3-(1-(2-cyanopyrimidin-4-yl)cyclohexyl)-1-(4-fluoro-3-(trifluoromethyl)phenyl)-1-methylurea]"
